Results as given in patent publication US8927545B2, “Inhibiting Eph B-3 kinase” (Duke University, priority 2009, dated 2015).
“Also recorded” adds a separate entry of the source.

Columns and labels:
[1] = target: T1, recombinant human EphB3 kinase (Homo sapiens, UniProt P54753); assay: IC50 for inhibiting EphB3 phosphorylation of the BTK peptide (33P radiometric assay, assay of Examples 1-6); assay type: biochemical; conditions: for EphB3 tyrosine kinase inhibitor activity (in words): inhibition of EphB3 phosphorylation of the BTK peptide; for IC50: inhibiting EphB3 phosphorylation of the BTK peptide (SEQ ID NO: 4)
T1 sequence (P54753 633-896 limits assumed): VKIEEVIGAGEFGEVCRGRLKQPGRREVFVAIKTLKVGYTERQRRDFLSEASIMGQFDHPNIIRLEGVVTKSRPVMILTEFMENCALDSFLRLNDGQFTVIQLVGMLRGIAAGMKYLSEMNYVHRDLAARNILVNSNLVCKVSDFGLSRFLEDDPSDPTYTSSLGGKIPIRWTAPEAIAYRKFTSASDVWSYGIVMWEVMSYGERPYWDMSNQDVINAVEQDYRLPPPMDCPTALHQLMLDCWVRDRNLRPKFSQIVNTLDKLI

[2] = test system: panel of tumor cell lines; assay: Dose-response against a panel of tumor cell lines (SRB, % growth); assay type: cell-based, human; conditions: leukemia, non-small cell lung, colon, CNS, melanoma, ovarian, renal, prostate, breast cancer lines; FIG. 8(A)-(I)
Experimental: The y-axis depicts the % growth and the x-axis depicts the compound concentration. The legends below each graph refer to the different tumor cell lines used. […]
The human tumor cell lines of the cancer screening panel were grown in RPMI 1640 medium containing 5% fetal bovine serum and 2 mM L-glutamine. For a typical screening experiment, cells were inoculated into 96 well microtiter plates in 100 μL at plating densities ranging from 5,000 to 40,000 cells/well depending on the doubling time of individual cell lines. After cell inoculation, the microtiter plates were incubated at 37° C., 5% CO2, 95% air and 100% relative humidity for 24 hours prior to addition of experimental drugs. […]
Following drug addition, the plates were incubated for an additional 48 h at 37° C., 5% CO2, 95% air, and 100% relative humidity. […] Bound stain was subsequently solubilized with 10 mM trizma base, and the absorbance is read on an automated plate reader at a wavelength of 515 nm. […] Using the seven absorbance measurements [time zero, (Tz), control growth, (C), and test growth in the presence of drug at the five concentration levels (Ti)], the percentage growth was calculated at each of the drug concentrations levels. Percentage growth inhibition was calculated as: [(Ti−Tz)/(C−Tz)]×100 for concentrations for which Ti>/=Tz [(Ti−Tz)/Tz]×100 for concentrations for which Ti<Tz. […]

[3] = test system: Animal Model for Stroke (ischemia); assay: Infarct volume in animal model for stroke (2 h artery occlusion, compound ICV, TTC staining); assay type: in vivo, Sprague-Dawley rats; conditions: different doses administered ICV; FIG. 6(E), FIG. 7(A)
[4] = test system: Animal Model for Stroke (ischemia); assay: Neurological score / neurological deficit after ischemic injury; conditions: rated between 0 (unaffected) and 4 (worst); different doses; FIG. 7(B)
recombinant EphB3 = target: T2, recombinant EphB3 (Homo sapiens, UniProt P54753); conditions: published data, scintillation proximity assay, different substrate; cited from earlier work
T2 sequence (P54753 34-998): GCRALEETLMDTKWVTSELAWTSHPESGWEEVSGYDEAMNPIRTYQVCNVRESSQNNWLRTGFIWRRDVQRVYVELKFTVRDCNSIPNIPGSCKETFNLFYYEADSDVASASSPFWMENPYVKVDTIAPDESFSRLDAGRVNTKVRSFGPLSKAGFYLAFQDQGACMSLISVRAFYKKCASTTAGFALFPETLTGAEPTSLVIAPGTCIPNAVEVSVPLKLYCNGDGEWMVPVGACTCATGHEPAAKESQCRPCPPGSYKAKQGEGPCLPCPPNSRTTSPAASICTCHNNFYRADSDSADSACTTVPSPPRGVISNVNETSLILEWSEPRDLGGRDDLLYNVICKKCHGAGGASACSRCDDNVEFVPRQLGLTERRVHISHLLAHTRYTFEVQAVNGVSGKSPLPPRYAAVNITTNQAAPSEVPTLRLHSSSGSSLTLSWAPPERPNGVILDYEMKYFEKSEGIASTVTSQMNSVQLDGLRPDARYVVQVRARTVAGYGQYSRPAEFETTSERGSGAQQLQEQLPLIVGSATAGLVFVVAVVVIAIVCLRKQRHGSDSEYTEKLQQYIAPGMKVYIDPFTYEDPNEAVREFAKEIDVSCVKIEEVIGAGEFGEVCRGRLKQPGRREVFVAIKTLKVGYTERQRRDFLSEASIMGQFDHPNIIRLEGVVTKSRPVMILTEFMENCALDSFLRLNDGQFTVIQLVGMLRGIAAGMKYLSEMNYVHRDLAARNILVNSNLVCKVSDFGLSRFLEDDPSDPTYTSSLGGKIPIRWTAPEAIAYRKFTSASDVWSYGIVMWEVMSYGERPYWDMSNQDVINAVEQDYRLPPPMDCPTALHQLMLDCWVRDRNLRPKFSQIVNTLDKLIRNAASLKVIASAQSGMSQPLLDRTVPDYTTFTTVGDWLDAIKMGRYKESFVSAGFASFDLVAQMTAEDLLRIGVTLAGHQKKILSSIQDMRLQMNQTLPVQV

[5] = target: T3, recombinant human EphB3 kinase (Homo sapiens, UniProt P54753); assay: HTRF assay of BTK substrate phosphorylation by EphB3 kinase (known kinase inhibitors)
T3 sequence (P54753 585-998): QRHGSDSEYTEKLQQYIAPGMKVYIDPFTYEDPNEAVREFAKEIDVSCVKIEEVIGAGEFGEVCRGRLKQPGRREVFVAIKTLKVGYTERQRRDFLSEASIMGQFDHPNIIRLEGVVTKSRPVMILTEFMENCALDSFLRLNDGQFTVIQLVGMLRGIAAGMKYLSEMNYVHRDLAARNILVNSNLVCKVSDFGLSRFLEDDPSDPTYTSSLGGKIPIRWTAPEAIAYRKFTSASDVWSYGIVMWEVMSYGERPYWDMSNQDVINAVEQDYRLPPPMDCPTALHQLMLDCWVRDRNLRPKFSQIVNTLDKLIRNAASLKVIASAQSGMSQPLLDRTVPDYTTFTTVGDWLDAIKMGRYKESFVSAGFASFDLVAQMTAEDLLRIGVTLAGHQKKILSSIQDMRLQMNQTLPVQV

[6] = Table 1 pyrazolo[1,5-a]pyridine compounds

SMILES | EphB3 tyrosine kinase inhibitor activity (in words) [1] | IC50 [1, 6] | also measured
O=C(Nc1ccccc1Cl)c1cnn2ccccc12 [Compound 1] | showed EphB3 tyrosine kinase inhibitor activity | – | –
CN(C(=O)c1cnn2ccccc12)c1ccccc1Cl [Compound 187597] | inactive | > 20 µM | –
O=C(Nc1ccccc1)c1cnn2ccccc12 [Compound 187598] | little or no inhibition | > 20 µM | –
O=C(Nc1ccc(Cl)cc1)c1cnn2ccccc12 [Compound 187601] | little or no inhibition | > 20 µM | –
O=C(NCc1ccccc1Cl)c1cnn2ccccc12 [Compound 187604] | little or no inhibition; also recorded: inactive | > 20 µM | –
Cn1cc(C(=O)Nc2ccccc2Cl)c2ccccc21 [Compound 187609] | – | – | IC50 ([1]; Table 2 candidate compounds): > 20 µM
O=C(Nc1ccccc1Cl)c1ccnc2ccccc12 [Compound 187611] | – | – | IC50 ([1]; Table 2 candidate compounds): > 20 µM
O=C(Nc1ccccc1Cl)c1noc2ccccc12 [Compound 193671] | – | – | IC50 ([1]; Table 2 candidate compounds): > 20 µM
O=C(Nc1ccccc1Cl)c1cnn2cccnc12 [Compound 193695] | – | – | IC50 ([1]; Table 2 candidate compounds): > 20 µM
O=C(Nc1ccccc1Cl)c1cnn2ncccc12 [Compound 193697] | – | – | IC50 ([1]; Table 2 candidate compounds): > 20 µM
O=C(Nc1ccccc1Cl)c1cnc2ccc(Br)cn12 [Compound 209925, 6-bromo-N-(2-chlorophenyl)imidazo[1,2-a]pyridine-3-carboxamide] | – | – | IC50 ([1]; Table 3 imidazo[1,2-a]pyridine compounds): < 0.2 µM
O=C(Nc1ccccc1Cl)c1cnc2ccc(C3CCNCC3)cn12 [Compound 211904, N-(2-chlorophenyl)-6-(piperidin-4-yl)imidazo[1,2-a]pyridine-3-carboxamide] | – | – | % growth of tumor cell lines [2]: inhibited; Infarct volume at different compound doses [3]: dose-dependent decrease in infarct volume; Neurological deficit [4]: dose-dependent neuroprotection in behavior
CC(C)(C)n1nc(-c2ccc(Cl)cc2)c2c(N)ncnc21 [PP2] | – | – | IC50 (recombinant EphB3): 0.8 µM; IC50 ([5]; 12.5 nM EphB3, 30 min preincubation at RT, […] ATP, 600 nM BTK for 1 hr): 1.7 µM; inhibition ([5]; at 10 μM, HTS positive control): 80%
CN[C@@H]1C[C@H]2O[C@@](C)([C@@H]1OC)n1c3ccccc3c3c4c(c5c6ccccc6n2c5c31)C(=O)NC4 [Staurosporine, staurosporine] | – | – | inhibition at 100 µM ([5]; read-out: inhibition of phosphorylation): 50%

Second part, led by results:

EphB3 tyrosine kinase inhibitor activity (in words) [1] | IC50 [1, 6] | SMILES | also measured
little or no inhibition | > 20 µM | O=C(Nc1cccc(Cl)c1)c1cnn2ccccc12 [Compound 187600] | –
little or no inhibition | > 20 µM | COc1ccccc1NC(=O)c1cnn2ccccc12 [Compound 187605] | –
– | > 20 µM | Cc1cccc2c(C(=O)Nc3ccccc3Cl)cnn12 [Compound 193694] | –
– | < 0.3 µM | O=C(Nc1ccccc1Cl)c1cnn2ccc(N3CCCC3)cc12 [Compound 194727, N-(2-chlorophenyl)-5-(pyrrolidin-1-yl)pyrazolo[1,5-a]pyridine-3-carboxamide] | –
